Holding throughout (assay): ≥ marks a high value that may be exact or a test limit, other limits are often not marked, values filed in µg/mL are converted to µM
For experiment [1], the system named is Escherichia coli ATCC 25922.
For experiment [2], the system named is Escherichia coli.
For experiment [3], the system named is Salmonella enterica subsp. enterica serovar Enteritidis.
The test system of experiment [4] is Salmonella sp.
The test system of experiment [5] is Staphylococcus aureus ATCC 29213.
The subject of experiment [6] is Staphylococcus aureus ATCC 43300.
Experiment [7] has as its system Yersinia enterocolitica.
Experiment [8] concerns Bacillus subtilis ATCC 6633.
In experiment [9] the test system is Candida albicans ATCC 10231.
The subject of experiment [10] is Escherichia coli D31.
Experiment [11] deals with Pseudomonas aeruginosa ATCC 15442.
Experiment [12] has as its system Pseudomonas aeruginosa PAO1.
The subject of experiment [13] is Staphylococcus aureus ATCC 25923.
In experiment [14] the test system is Staphylococcus aureus MR.
The subject of experiment [15] is Streptococcus mutans ATCC 25175.
Experiment [16] deals with Acinetobacter baumannii ATCC 19606.
In experiment [17] the test system is Candida albicans ATCC 90028.
The subject of experiment [18] is Cryptococcus neoformans ATCC 208821.
Experiment [19] concerns Klebsiella pneumoniae ATCC 700603.
Experiment [20] has as its system Pseudomonas aeruginosa ATCC 27853.
Experiment [21] concerns Staphylococcus aureus SH1000.
Experiment [22] deals with Staphylococcus aureus ATCC 12600.

Values after ≈ are worked out from the molar mass of the structure shown.

Broadly, the MIC is the least concentration at which growth counts as inhibited. The low end stands for inhibition by little substance, the high end for a need for much substance. `CC[C@H](C)[C@H](NC(=O)[C@H](CCC(N)=O)NC(=O)[C@@H](N)CCCN=C(N)N)C(=O)N[C@H](C(=O)N[C@@H](CCCN=C(N)N)C(=O)N[C@@H](CCCN=C(N)N)C(=O)N[C@@H](CCSC)C(=O)N[C@@H](CCC(N)=O)C(=O)N[C@@H](CCCN=C(N)N)C(N)=O)[C@@H](C)CC` [RQIIRRMQR]: the MIC in [1] is > 39.8 µM; in experiment [2], > 39.8 µM; in [3], ≥ 39.8 µM; in [4] it was ≥ 39.8 µM; in experiment [5], > 39.8 µM; in experiment [6], > 39.8 µM. Moreover, the minimal inhibitory concentration (MIC) in [7] was ≥ 39.8 µM.
Take `CC[C@H](C)[C@H](NC(=O)[C@H](CCCCN)NC(=O)[C@H](CCC(N)=O)NC(=O)[C@H](CC(C)C)NC(=O)[C@@H](N)Cc1ccccc1)C(=O)N[C@H](C(=O)NCC(=O)N[C@@H](C)C(=O)N[C@@H](CC(C)C)C(=O)NCC(=O)N[C@@H](Cc1cnc[nH]1)C(=O)N[C@@H](CC(C)C)C(=O)N[C@@H](Cc1ccccc1)C(N)=O)[C@@H](C)CC` [FLQKIIGALGHLF]: the MIC in experiment [8] is ≥ 100 µM; in experiment [9], > 100 µM; in [1], 12.5 µM (≈ 18.2 µg/mL); in [10], ≥ 100 µM; in experiment [11], 6.2 µM (≈ 9.03 µg/mL); in experiment [12], > 100 µM. Moreover, the minimum inhibitory concentration (MIC) in experiment [13] stood at 3.1 µM (≈ 4.51 µg/mL); in experiment [6] it was 6.2 µM (≈ 9.03 µg/mL); in [14], 12.5 µM (≈ 18.2 µg/mL); in experiment [15], 6.2 µM (≈ 9.03 µg/mL).
Regarding `CC[C@H](C)[C@H](NC(=O)[C@H](CC(=O)O)NC(=O)[C@H](Cc1ccccc1)NC(=O)[C@H](CC(C)C)NC(=O)CN)C(=O)N[C@H](C(=O)N[C@@H](CCCCN)C(=O)N[C@@H](CCCCN)C(=O)N[C@H](C(=O)N[C@@H](CC(C)C)C(=O)N[C@@H](CCCCN)C(=O)N[C@@H](CC(C)C)C(=O)N[C@@H](CC(C)C)C(=O)N[C@@H](CCCCN)C(N)=O)C(C)C)C(C)C` [GLFDIVKKVLKLLK], the MIC in [16] was > 20 µM; in experiment [17], 20 µM (≈ 32.3 µg/mL); in experiment [18], 20 µM (≈ 32.3 µg/mL); in [1], > 20 µM; in experiment [19], > 20 µM; in experiment [20], > 20 µM. The MIC in experiment [6] was > 20 µM; in experiment [21], 3.3 µM (≈ 5.32 µg/mL).
In the case of `CC[C@H](C)[C@H](NC(=O)[C@H](C)NC(=O)CNC(=O)[C@H](Cc1ccccc1)NC(=O)[C@H](CC(C)C)NC(=O)CN)C(=O)N[C@@H](C)C(=O)NCC(=O)N[C@@H](Cc1ccccc1)C(=O)N[C@H](C(=O)N[C@@H](CCCCN)C(=O)N[C@@H](CC(N)=O)C(=O)NCC(=O)N[C@@H](Cc1c[nH]c2ccccc12)C(=O)N[C@@H](CCCCN)C(=O)NCC(=O)N[C@@H](CCSC)C(=O)N[C@H](C(=O)N[C@@H](CCCCN)C(=O)NCC(N)=O)[C@@H](C)CC)[C@@H](C)CC` [GLFGAIAGFIKNGWKGMIKG], the MIC came out at 3.8 µM (≈ 7.85 µg/mL) in experiment [1], 7.6 µM (≈ 15.7 µg/mL) in experiment [20], 3.8 µM (≈ 7.85 µg/mL) in experiment [22] and 1.9 µM (≈ 3.92 µg/mL) in experiment [15].
For `CC[C@H](C)[C@H](NC(=O)[C@H](CC(=O)O)NC(=O)[C@H](Cc1ccccc1)NC(=O)[C@H](CC(C)C)NC(=O)CN)C(=O)N[C@H](C(=O)N[C@@H](CCCCN)C(=O)N[C@@H](CCCCN)C(=O)N[C@H](C(=O)N[C@H](C(=O)NCC(=O)N[C@@H](C)C(=O)N[C@@H](CC(C)C)C(=O)N[C@@H](CCCCN)C(N)=O)C(C)C)C(C)C)C(C)C` [GLFDIVKKVVGALK], the minimal inhibitory concentration (MIC) is > 22 µM in experiment [16]; 22 µM (≈ 32.7 µg/mL) in experiment [17]; 22 µM (≈ 32.7 µg/mL) in [18]; > 22 µM in experiment [1]; > 22 µM in experiment [19]; > 22 µM in experiment [20]. The minimum inhibitory concentration (MIC) was > 22 µM in [6] and ≥ 33 µM in [21].
On to `CC[C@H](C)[C@H](NC(=O)[C@H](CCCCN)NC(=O)[C@@H]1CCCN1C(=O)[C@H](CCC(N)=O)NC(=O)[C@@H](N)CCCN=C(N)N)C(=O)N1CCC[C@H]1C(=O)N[C@@H](CCCN=C(N)N)C(=O)N[C@@H](CCSC)C(=O)N1CCC[C@H]1C(=O)N[C@@H](Cc1c[nH]c2ccccc12)C(=O)N[C@@H](CCCN=C(N)N)C(N)=O` [RQPKIPRMPWR], for which the MIC in experiment [1] is > 34.1 µM; in experiment [2], > 34.1 µM; in experiment [3], ≥ 34.1 µM; in experiment [4], ≥ 34.1 µM; in experiment [5] it was > 34.1 µM; in [6], > 34.1 µM. For the same molecule, in experiment [7], the MIC was ≥ 34.1 µM.
